Test results published in publication PMC9166766 (Experimental & Molecular Medicine, 2022).
No end group written: not given here.

Tested on: Jurkat T cells (PMA and ionomycin-induced gene expression)
Experiment: mRNA sequencing of activated Jurkat T cells
Format: cell-based, human
Experimental: We then extracted RNA from these cells. Construction of the cDNA library and next-generation sequencing was performed at LAS (Gimpo, Korea). We sequenced all samples on an Illumina NextSeq 500 system with 75 paired-end reads. For the RNA sequencing analysis, reads for each sample were aligned to the human genome (GRCh37/hg19 genome assembly) using STAR 2.4.0.1[25] with default settings. We used HOMER tools to quantify and normalize the defined genes in RefSeq transcripts. FPKM normalized genes were hierarchically clustered using Cluster3.0[26]. We visualized refined data with Java Treeview (http://jtreeview.sourceforge.net). We conducted gene ontology analysis of each cluster using the DAVID web tool (https://david.ncifcrf.gov). Finally, we visualized the expression levels of target genes using the Integrative Genomics Viewer (http://software.broadinstitute.org/software/igv). The raw data were submitted to the NCBI Gene Expression Omnibus under accession number GSE185561.
Fig. 3 The CABIN1 peptide inhibits T-cell activation. a Heatmap of altered genes affected by FK506 treatment or CABIN1 peptide expression upon T-cell activation. b Gene Ontology analysis of cluster III. c mRNA expression levels of genes included in cluster III. d qRT-PCR data of genes in c. The experiment was independently repeated at least three times, and the data are presented as the mean ± standard deviation. Statistical differences were determined using two-tailed Student’s t-test. *p < 0.05, **p < 0.01, ***p < 0.001, NC negative control.

CABIN1-L-1-2: 10 amino acids from proline 2146 to proline 2155 of full-length CABIN1; expressed GST-, GAL4 DBD- or HA-mCherry-tagged (PEITVTPPTP; also: expressed GST-, GAL4 DBD- or HA-mCherry-tagged, end not given here)
CD27 and CD70 expression (Jurkat, PMA and ionomycin 8 h): repressed
RNA levels of T-cell activation markers (IL2, IL3, NFATC1, CCL4, CCL20, CXCL8) (Jurkat, PMA and ionomycin 8 h): reduced the RNA levels
TM4SF1 expression (P+I 8 h, NC 0, NC_P+I 3.268): 0.907 FPKM
CD200 expression (P+I 8 h, NC 0, NC_P+I 3.759): 0.094 FPKM
ZP4 expression (P+I 8 h, NC 0, NC_P+I 6.38): 5.182 FPKM
CCL3L1 expression (P+I 8 h, NC 0, NC_P+I 6.448): 0.079 FPKM
CCL3L3 expression (P+I 8 h, NC 0, NC_P+I 6.524): 0.079 FPKM
CCL1 expression (P+I 8 h, NC 0, NC_P+I 9.86): 0.415 FPKM
NR4A2 expression (P+I 8 h, NC 0, NC_P+I 10.173): 0.356 FPKM
CCL4L2 expression (P+I 8 h, NC 0, NC_P+I 12.758): 0.328 FPKM
CCL4L1 expression (P+I 8 h, NC 0, NC_P+I 13.27): 0.328 FPKM
CSF2 expression (P+I 8 h, NC 0, NC_P+I 23.497): 0.314 FPKM
XCL1 expression (P+I 8 h, NC 0, NC_P+I 49.113): 1.144 FPKM
CCL3 expression (P+I 8 h, NC 0, NC_P+I 52.239): 0.502 FPKM
CCL20 expression (P+I 8 h, NC 0, NC_P+I 59.393): 1.279 FPKM
IL3 expression (P+I 8 h, NC 0, NC_P+I 229.054): 6.298 FPKM
CCL4 expression (P+I 8 h, NC 0, NC_P+I 247.287): 4.062 FPKM
IL2 expression (P+I 8 h, NC 0, NC_P+I 397.807): 12.964 FPKM
C3 expression (P+I 8 h, NC 0.006, NC_P+I 3.907): 1.329 FPKM
TNS3 expression (P+I 8 h, NC 0.008, NC_P+I 13.196): 1.418 FPKM
PLS3 expression (P+I 8 h, NC 0.019, NC_P+I 4.717): 0.37 FPKM
CREB5 expression (P+I 8 h, NC 0.031, NC_P+I 4.533): 1.966 FPKM
IRF4 expression (P+I 8 h, NC 0.034, NC_P+I 8.439): 2.092 FPKM
CXCL8 expression (P+I 8 h, NC 0.037, NC_P+I 26.755): 3.327 FPKM
SLAMF1 expression (P+I 8 h, NC 0.042, NC_P+I 5.663): 0.275 FPKM
TNFSF14 expression (P+I 8 h, NC 0.045, NC_P+I 69.958): 4.255 FPKM
IL21R-AS1 expression (P+I 8 h, NC 0.048, NC_P+I 23.616): 3.991 FPKM
XCL2 expression (P+I 8 h, NC 0.056, NC_P+I 70.747): 2.074 FPKM
LIF expression (P+I 8 h, NC 0.063, NC_P+I 3.697): 0.231 FPKM
SHC4 expression (P+I 8 h, NC 0.069, NC_P+I 4.391): 0.686 FPKM
RGS16 expression (P+I 8 h, NC 0.077, NC_P+I 29.102): 5.595 FPKM
IL21R expression (P+I 8 h, NC 0.1, NC_P+I 34.712): 5.255 FPKM
CRTAM expression (P+I 8 h, NC 0.104, NC_P+I 100.175): 9.51 FPKM
ZNF704 expression (P+I 8 h, NC 0.107, NC_P+I 4.985): 0.183 FPKM
NTRK1 expression (P+I 8 h, NC 0.167, NC_P+I 7.941): 1.657 FPKM
PHEX expression (P+I 8 h, NC 0.188, NC_P+I 17.377): 0.786 FPKM
SORBS1 expression (P+I 8 h, NC 0.196, NC_P+I 5.08): 0.511 FPKM
TIAM2 expression (P+I 8 h, NC 0.255, NC_P+I 4.095): 0.301 FPKM
CRIM1 expression (P+I 8 h, NC 0.268, NC_P+I 3.029): 0.333 FPKM
SERPINB2 expression (P+I 8 h, NC 0.28, NC_P+I 85.882): 14.103 FPKM
CCND2 expression (P+I 8 h, NC 0.321, NC_P+I 6.436): 0.99 FPKM
CXCR3 expression (P+I 8 h, NC 0.604, NC_P+I 14.322): 1.803 FPKM
ISM1 expression (P+I 8 h, NC 0.798, NC_P+I 56.893): 3.737 FPKM
C10orf54 expression (P+I 8 h, NC 0.84, NC_P+I 7.506): 0.487 FPKM
CSF1 expression (P+I 8 h, NC 0.848, NC_P+I 13.43): 2.594 FPKM
SLC35E4 expression (P+I 8 h, NC 0.887, NC_P+I 9.069): 1.517 FPKM
ZNF827 expression (P+I 8 h, NC 0.975, NC_P+I 3.401): 1.372 FPKM
CD70 expression (P+I 8 h, NC 1.101, NC_P+I 61.146): 7.606 FPKM
PAM expression (P+I 8 h, NC 1.154, NC_P+I 5.577): 1.934 FPKM
FOXO1 expression (P+I 8 h, NC 1.167, NC_P+I 8.247): 3.736 FPKM
IRF8 expression (P+I 8 h, NC 1.168, NC_P+I 14.813): 1.914 FPKM
SCHIP1 expression (P+I 8 h, NC 1.25, NC_P+I 3.933): 1.333 FPKM
FOSL2 expression (P+I 8 h, NC 1.294, NC_P+I 7.508): 2.362 FPKM
TNFSF9 expression (P+I 8 h, NC 1.393, NC_P+I 7.107): 2.651 FPKM
IQCJ-SCHIP1 expression (P+I 8 h, NC 1.402, NC_P+I 4.253): 1.234 FPKM
STAT5A expression (P+I 8 h, NC 1.417, NC_P+I 9.105): 3.055 FPKM
TDRD9 expression (P+I 8 h, NC 1.428, NC_P+I 25.902): 1.888 FPKM
LOC729603 expression (P+I 8 h, NC 1.468, NC_P+I 5.071): 3.329 FPKM
PDGFA expression (P+I 8 h, NC 1.497, NC_P+I 26.809): 8.169 FPKM
PHACTR2 expression (P+I 8 h, NC 1.659, NC_P+I 9.467): 2.791 FPKM
CABP1 expression (P+I 8 h, NC 1.702, NC_P+I 5.834): 1.689 FPKM
POU2AF1 expression (P+I 8 h, NC 1.84, NC_P+I 36.298): 2.971 FPKM
SPRY1 expression (P+I 8 h, NC 2.079, NC_P+I 12.391): 4.901 FPKM
GFOD1 expression (P+I 8 h, NC 2.283, NC_P+I 12.861): 6.312 FPKM
DSTYK expression (P+I 8 h, NC 2.356, NC_P+I 7.198): 3.595 FPKM
FMNL2 expression (P+I 8 h, NC 2.395, NC_P+I 6.813): 3.019 FPKM
ADORA2A expression (P+I 8 h, NC 2.492, NC_P+I 11.633): 1.475 FPKM
CD27 expression (P+I 8 h, NC 2.525, NC_P+I 27.462): 3.4 FPKM
TNFRSF4 expression (P+I 8 h, NC 2.597, NC_P+I 31.683): 11.916 FPKM
REL expression (P+I 8 h, NC 2.654, NC_P+I 20.219): 5.699 FPKM
JAK2 expression (P+I 8 h, NC 2.788, NC_P+I 26.566): 8.45 FPKM
LRRC8B expression (P+I 8 h, NC 2.89, NC_P+I 28.699): 4.298 FPKM
NPDC1 expression (P+I 8 h, NC 3.008, NC_P+I 8.759): 5.64 FPKM
CD27-AS1 expression (P+I 8 h, NC 3.088, NC_P+I 14.958): 4.613 FPKM
CST7 expression (P+I 8 h, NC 3.315, NC_P+I 14.15): 3.175 FPKM
TAGAP expression (P+I 8 h, NC 3.351, NC_P+I 128.498): 8.731 FPKM
CD55 expression (P+I 8 h, NC 3.587, NC_P+I 39.451): 12.082 FPKM
GTDC1 expression (P+I 8 h, NC 3.595, NC_P+I 10.378): 5.144 FPKM
KCNK5 expression (P+I 8 h, NC 3.84, NC_P+I 14.865): 4.904 FPKM
MYO1D expression (P+I 8 h, NC 4.114, NC_P+I 11.118): 5.995 FPKM
RDH10 expression (P+I 8 h, NC 4.125, NC_P+I 19.889): 5.524 FPKM
COL27A1 expression (P+I 8 h, NC 4.149, NC_P+I 17.216): 5.729 FPKM
PLK3 expression (P+I 8 h, NC 4.432, NC_P+I 14.807): 7.036 FPKM
NFATC1 expression (P+I 8 h, NC 4.511, NC_P+I 15.287): 3.916 FPKM
ASAP1 expression (P+I 8 h, NC 4.678, NC_P+I 18.37): 9.052 FPKM
GRK5 expression (P+I 8 h, NC 5.451, NC_P+I 21.464): 8.975 FPKM
CCDC64 expression (P+I 8 h, NC 5.477, NC_P+I 33.545): 11.039 FPKM
ATG14 expression (P+I 8 h, NC 5.727, NC_P+I 30.239): 11.252 FPKM
PELI1 expression (P+I 8 h, NC 5.755, NC_P+I 16.085): 8.465 FPKM
ARHGEF3 expression (P+I 8 h, NC 6.146, NC_P+I 31.337): 8.674 FPKM
PKIA expression (P+I 8 h, NC 6.444, NC_P+I 49.019): 18.138 FPKM
LTBP4 expression (P+I 8 h, NC 7.304, NC_P+I 33.466): 9.568 FPKM
LAMP3 expression (P+I 8 h, NC 8.064, NC_P+I 31.61): 9.828 FPKM
LAX1 expression (P+I 8 h, NC 8.344, NC_P+I 24): 7.578 FPKM
PTPN22 expression (P+I 8 h, NC 8.928, NC_P+I 45.38): 5.119 FPKM
VAMP1 expression (P+I 8 h, NC 9.566, NC_P+I 50.97): 14.752 FPKM
NINJ1 expression (P+I 8 h, NC 10.319, NC_P+I 76.622): 54.452 FPKM
KCNK1 expression (P+I 8 h, NC 10.828, NC_P+I 36.893): 13.139 FPKM
CD97 expression (P+I 8 h, NC 10.97, NC_P+I 49.481): 21.496 FPKM
FBXO34 expression (P+I 8 h, NC 11.735, NC_P+I 48.015): 18.386 FPKM
TBC1D20 expression (P+I 8 h, NC 11.844, NC_P+I 35.808): 18.427 FPKM
MIR6775 expression (P+I 8 h, NC 12.409, NC_P+I 50.527): 21.57 FPKM
AGK expression (P+I 8 h, NC 14.395, NC_P+I 39.056): 14.306 FPKM
FYN expression (P+I 8 h, NC 14.671, NC_P+I 58.084): 15.512 FPKM
MIR6821 expression (P+I 8 h, NC 17.553, NC_P+I 62.894): 25.116 FPKM
NDFIP1 expression (P+I 8 h, NC 19.638, NC_P+I 54.615): 24.432 FPKM
TBC1D4 expression (P+I 8 h, NC 20.739, NC_P+I 73.749): 13.191 FPKM
MAP2K3 expression (P+I 8 h, NC 21.676, NC_P+I 144.057): 43.237 FPKM
PTPN6 expression (P+I 8 h, NC 22.163, NC_P+I 77.092): 20.806 FPKM
FXYD5 expression (P+I 8 h, NC 25.643, NC_P+I 101.352): 42.856 FPKM
BCL2L1 expression (P+I 8 h, NC 31.375, NC_P+I 113.956): 41.852 FPKM
ATP6V1B2 expression (P+I 8 h, NC 33.172, NC_P+I 129.395): 60.661 FPKM
PIM3 expression (P+I 8 h, NC 37.434, NC_P+I 180.382): 72.895 FPKM
PPIF expression (P+I 8 h, NC 58.328, NC_P+I 188.301): 106.533 FPKM
